{
  "source": "patent US20150104430A1",
  "about": "“Methods and Compositions for Generating Pancreatic Progenitors and Functional Beta Cells from hPSCs” (University Health Network, priority 2012, published 2015)",
  "molecules": {"B1": {"name": "Noggin (protein, UniProt Q13253 28-232, looked up)", "Noggin": "QHYLHIRPAPSDNLPLVDLIEHPDPIFDPKEKDLNETLLRSLLGGHYDPGFMATSPPEDRPGGGGGAAGGAEDLAELDQLLRQRPSGAMPSEIKGLEFSEGLAQGKKQRLSKKLRRKLQMWLWSQTFCPVLYAWNDLGSRFWPRYVKVGSCFSKRSCSVPEGMVCKPSKSVHLTVLRWRCQRRGGQRCGWIPIQYPIISECKCSC", "notes": "bone morphogenetic protein antagonist having Gene ID: 9241"}},
  "key": {"[1]": {"test_system": "human fetal pancreatic cells", "settings": "Otonkoski et al., 1993; cited from earlier work"}, "[2]": {"test_system": "human ES cell line: H9 (WA09)", "assay": "Percentage of NKX6-1+ cells after stage 4 treatment of H9 (WA09)-derived endodermal cells", "assay_type": "cell-based", "settings": "day 13 of differentiation, treatment at stage 4"}},
  "data": [
    {"molecule": "NC(=O)c1cccnc1", "note": "[Nicotinamide (NA), Nicotinamide]", "values": [
      {"measurement": "induction of endocrine differentiation", "setting": "[1]", "value": "potent inducer of endocrine differentiation"},
      {"measurement": "Percentage of NKX6-1+ cells", "setting": "[2]", "value": 14.0, "unit": "%"}
    ]},
    {"molecule": "EGF [EGF (E)]", "values": [
      {"measurement": "Percentage of NKX6-1+ cells", "setting": "[2]", "value": 18.5, "unit": "%"}
    ]},
    {"molecule": "B1", "values": [
      {"measurement": "Percentage of NKX6-1+ cells", "setting": "[2]", "value": 21.7, "unit": "%"}
    ]}
  ]
}
